Laboratory results from ChEMBL document CHEMBL5291721, “A preclinical secondary pharmacology resource illuminates target-adverse drug reaction associations of marketed drugs” (Nat Commun, 2023).

Tests used:
[1] = target: T1, Alpha-1A adrenergic receptor (Homo sapiens, UniProt P35348); format: functional, cell-based
T1 sequence (P35348 whole entry): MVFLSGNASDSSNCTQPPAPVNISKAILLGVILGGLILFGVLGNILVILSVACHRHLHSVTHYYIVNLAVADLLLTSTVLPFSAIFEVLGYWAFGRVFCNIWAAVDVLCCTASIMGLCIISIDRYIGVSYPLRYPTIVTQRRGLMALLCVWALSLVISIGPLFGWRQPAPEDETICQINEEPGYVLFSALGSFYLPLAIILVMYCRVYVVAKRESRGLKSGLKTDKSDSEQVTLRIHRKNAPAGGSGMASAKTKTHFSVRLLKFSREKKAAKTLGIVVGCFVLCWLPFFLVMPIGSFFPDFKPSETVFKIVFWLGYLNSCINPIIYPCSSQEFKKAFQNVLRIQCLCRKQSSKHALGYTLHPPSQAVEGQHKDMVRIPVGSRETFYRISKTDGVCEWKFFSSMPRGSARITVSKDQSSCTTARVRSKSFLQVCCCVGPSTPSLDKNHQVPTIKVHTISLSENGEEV

[2] = target: Gamma-aminobutyric acid receptor subunit alpha-1 (Rattus norvegicus, UniProt P62813)
[3] = target: 5-hydroxytryptamine receptor 2B (Homo sapiens, UniProt P41595); format: functional, cell-based
Chain of 5-hydroxytryptamine receptor 2B (P41595 whole entry): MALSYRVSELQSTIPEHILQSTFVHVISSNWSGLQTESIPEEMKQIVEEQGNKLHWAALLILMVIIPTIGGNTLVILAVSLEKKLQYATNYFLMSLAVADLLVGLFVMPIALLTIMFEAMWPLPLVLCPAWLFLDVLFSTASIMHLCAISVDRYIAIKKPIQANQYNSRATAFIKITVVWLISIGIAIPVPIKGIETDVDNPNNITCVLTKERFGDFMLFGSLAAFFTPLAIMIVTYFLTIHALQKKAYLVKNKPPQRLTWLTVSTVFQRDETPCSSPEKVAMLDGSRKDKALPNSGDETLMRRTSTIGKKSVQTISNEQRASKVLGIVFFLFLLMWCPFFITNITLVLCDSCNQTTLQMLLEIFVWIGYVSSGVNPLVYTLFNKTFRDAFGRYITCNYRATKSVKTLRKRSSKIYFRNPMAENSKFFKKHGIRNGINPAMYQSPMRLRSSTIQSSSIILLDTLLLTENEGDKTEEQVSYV

[4] = target: T2, Muscarinic acetylcholine receptor M2 (Homo sapiens, UniProt P08172)
T2 sequence (P08172 whole entry): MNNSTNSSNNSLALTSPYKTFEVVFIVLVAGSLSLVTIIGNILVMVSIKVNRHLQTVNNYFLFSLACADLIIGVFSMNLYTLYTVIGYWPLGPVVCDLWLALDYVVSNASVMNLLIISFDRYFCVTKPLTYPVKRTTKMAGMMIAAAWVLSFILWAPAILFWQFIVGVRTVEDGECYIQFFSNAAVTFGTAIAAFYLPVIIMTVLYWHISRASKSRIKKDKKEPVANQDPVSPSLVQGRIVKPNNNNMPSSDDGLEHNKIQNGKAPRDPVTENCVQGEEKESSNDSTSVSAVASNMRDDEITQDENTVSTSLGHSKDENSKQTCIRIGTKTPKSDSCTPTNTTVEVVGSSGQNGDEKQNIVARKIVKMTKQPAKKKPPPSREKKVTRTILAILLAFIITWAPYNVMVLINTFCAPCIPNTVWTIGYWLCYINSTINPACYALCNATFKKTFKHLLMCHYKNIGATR

[5] = target: T3, Amine oxidase [flavin-containing] A (Homo sapiens, UniProt P21397); format: functional
T3 sequence (P21397 whole entry): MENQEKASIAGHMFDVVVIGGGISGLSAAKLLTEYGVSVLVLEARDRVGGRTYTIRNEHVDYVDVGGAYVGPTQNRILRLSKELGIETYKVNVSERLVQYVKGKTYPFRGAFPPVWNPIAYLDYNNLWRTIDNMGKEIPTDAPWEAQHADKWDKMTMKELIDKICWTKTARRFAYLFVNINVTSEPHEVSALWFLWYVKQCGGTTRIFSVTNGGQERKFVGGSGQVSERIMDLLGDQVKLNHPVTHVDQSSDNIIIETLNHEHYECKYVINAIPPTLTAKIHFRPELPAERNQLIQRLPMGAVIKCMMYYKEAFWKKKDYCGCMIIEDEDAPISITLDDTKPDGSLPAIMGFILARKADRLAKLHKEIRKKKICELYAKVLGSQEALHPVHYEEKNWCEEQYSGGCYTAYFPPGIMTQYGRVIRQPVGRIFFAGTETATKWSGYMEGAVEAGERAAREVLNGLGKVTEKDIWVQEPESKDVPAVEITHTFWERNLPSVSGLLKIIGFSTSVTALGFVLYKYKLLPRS

[6] = target: T4, Endothelin receptor type B (Homo sapiens, UniProt P24530)
T4 sequence (P24530 whole entry): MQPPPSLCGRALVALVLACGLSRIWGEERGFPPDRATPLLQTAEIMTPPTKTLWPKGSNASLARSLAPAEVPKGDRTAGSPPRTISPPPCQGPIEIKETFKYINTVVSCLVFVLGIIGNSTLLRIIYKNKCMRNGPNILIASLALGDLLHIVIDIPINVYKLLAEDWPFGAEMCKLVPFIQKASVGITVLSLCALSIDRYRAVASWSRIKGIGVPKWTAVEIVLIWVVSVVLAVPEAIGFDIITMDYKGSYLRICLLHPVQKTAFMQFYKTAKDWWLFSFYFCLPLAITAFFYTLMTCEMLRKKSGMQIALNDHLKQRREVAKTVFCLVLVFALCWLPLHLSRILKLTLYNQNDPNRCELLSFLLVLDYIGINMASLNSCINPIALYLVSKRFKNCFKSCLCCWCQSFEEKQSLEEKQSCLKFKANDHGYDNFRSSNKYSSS

[7] = target: T5, Gastric inhibitory polypeptide receptor (Homo sapiens, UniProt P48546)
T5 sequence (P48546 whole entry): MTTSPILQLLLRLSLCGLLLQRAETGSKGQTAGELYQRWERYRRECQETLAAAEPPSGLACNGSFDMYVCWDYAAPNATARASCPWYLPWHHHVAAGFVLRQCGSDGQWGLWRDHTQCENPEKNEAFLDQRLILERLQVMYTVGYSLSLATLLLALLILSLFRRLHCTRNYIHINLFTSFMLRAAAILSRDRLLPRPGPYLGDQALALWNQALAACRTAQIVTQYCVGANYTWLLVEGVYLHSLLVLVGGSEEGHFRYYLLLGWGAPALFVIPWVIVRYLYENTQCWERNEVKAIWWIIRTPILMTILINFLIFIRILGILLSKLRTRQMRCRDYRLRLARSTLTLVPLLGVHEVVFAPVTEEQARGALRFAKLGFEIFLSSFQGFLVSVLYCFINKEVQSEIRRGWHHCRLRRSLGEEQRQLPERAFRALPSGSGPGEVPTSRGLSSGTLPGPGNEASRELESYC

[8] = target: Cannabinoid receptor 1 (Homo sapiens, UniProt P21554); format: functional
Chain of Cannabinoid receptor 1 (P21554 whole entry): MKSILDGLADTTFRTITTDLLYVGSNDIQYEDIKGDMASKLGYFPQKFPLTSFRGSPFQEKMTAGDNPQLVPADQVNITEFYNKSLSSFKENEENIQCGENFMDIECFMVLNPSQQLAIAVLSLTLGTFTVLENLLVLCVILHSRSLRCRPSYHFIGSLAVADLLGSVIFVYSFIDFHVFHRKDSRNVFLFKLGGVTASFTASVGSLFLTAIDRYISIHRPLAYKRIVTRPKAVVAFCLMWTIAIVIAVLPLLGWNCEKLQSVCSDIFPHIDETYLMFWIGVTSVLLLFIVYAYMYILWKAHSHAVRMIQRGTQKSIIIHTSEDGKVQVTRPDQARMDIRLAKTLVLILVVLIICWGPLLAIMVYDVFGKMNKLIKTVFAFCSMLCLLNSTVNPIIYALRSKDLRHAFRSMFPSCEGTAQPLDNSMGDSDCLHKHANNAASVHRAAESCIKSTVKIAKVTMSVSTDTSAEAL

[9] = target: Sodium channel protein type 5 subunit alpha (Homo sapiens, UniProt Q14524); format: functional, cell-based
Chain of Sodium channel protein type 5 subunit alpha (Q14524 whole entry): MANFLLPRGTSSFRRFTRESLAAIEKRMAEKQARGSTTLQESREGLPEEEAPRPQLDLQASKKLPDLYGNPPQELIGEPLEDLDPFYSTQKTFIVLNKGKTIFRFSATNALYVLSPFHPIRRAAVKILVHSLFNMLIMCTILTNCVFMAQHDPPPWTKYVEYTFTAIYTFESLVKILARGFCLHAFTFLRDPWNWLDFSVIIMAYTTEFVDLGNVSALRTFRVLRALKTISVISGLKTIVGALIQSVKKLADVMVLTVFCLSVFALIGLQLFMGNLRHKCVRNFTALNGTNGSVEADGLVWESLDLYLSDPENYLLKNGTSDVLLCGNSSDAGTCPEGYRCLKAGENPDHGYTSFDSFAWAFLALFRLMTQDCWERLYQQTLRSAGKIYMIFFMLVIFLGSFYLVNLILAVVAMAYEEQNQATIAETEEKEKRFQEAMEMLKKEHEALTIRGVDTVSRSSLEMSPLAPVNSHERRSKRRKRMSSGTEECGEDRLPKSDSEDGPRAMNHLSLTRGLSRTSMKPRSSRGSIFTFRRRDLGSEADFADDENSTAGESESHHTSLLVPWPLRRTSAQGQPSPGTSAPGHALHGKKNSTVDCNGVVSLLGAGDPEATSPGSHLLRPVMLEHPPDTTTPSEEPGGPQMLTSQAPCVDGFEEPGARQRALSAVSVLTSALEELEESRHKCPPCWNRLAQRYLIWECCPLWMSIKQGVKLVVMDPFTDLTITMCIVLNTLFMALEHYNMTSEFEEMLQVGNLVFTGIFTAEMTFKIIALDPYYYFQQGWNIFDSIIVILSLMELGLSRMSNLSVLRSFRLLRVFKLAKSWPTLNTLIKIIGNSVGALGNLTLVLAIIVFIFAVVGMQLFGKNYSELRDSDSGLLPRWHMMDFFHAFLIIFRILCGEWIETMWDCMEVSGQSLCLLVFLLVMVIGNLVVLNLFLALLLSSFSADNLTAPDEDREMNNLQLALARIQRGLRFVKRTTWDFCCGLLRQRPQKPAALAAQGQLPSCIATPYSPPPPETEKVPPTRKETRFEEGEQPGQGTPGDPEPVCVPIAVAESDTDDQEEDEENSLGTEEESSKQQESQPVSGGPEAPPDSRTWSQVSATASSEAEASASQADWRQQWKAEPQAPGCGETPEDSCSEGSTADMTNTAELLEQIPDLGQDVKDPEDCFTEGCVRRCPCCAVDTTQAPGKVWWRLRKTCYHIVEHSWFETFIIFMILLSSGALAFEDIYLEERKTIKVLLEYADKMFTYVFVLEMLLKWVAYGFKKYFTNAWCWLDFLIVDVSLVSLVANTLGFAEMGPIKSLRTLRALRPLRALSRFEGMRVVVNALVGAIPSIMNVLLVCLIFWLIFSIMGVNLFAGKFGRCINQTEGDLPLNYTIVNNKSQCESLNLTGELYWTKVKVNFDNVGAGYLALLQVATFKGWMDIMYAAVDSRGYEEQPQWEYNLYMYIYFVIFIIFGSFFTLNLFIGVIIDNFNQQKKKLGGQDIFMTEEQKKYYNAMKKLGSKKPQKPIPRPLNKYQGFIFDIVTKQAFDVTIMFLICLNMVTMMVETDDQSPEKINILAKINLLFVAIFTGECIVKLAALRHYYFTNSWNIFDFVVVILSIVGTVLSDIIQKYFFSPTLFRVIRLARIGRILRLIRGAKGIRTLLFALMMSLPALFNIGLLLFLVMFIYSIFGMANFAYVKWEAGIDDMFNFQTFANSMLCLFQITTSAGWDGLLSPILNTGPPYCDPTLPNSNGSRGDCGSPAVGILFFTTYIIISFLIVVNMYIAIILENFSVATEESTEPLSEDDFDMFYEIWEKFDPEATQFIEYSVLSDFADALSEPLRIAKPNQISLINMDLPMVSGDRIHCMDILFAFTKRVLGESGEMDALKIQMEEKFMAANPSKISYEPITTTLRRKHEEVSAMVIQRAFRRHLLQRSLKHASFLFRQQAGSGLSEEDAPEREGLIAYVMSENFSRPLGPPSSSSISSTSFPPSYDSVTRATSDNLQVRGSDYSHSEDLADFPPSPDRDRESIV

[10] = target: T6, Gamma-aminobutyric acid receptor subunit alpha-1/alpha-2/beta-2/gamma-2 (Homo sapiens, UniProt P14867+P18507+P47869+P47870); format: functional, cell-based
T6 sequence (P14867 whole entry): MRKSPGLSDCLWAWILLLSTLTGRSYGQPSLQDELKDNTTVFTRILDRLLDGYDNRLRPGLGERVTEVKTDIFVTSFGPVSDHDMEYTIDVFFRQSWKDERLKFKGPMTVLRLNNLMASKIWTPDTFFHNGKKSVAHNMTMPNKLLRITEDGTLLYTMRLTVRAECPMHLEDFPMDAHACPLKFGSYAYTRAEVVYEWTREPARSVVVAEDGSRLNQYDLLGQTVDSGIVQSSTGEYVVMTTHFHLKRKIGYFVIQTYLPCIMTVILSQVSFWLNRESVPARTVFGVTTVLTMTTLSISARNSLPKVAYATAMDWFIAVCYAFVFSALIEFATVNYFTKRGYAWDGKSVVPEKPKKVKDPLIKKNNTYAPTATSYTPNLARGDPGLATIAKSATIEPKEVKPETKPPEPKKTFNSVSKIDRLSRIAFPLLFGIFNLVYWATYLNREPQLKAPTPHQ
T6 sequence (P47870 whole entry): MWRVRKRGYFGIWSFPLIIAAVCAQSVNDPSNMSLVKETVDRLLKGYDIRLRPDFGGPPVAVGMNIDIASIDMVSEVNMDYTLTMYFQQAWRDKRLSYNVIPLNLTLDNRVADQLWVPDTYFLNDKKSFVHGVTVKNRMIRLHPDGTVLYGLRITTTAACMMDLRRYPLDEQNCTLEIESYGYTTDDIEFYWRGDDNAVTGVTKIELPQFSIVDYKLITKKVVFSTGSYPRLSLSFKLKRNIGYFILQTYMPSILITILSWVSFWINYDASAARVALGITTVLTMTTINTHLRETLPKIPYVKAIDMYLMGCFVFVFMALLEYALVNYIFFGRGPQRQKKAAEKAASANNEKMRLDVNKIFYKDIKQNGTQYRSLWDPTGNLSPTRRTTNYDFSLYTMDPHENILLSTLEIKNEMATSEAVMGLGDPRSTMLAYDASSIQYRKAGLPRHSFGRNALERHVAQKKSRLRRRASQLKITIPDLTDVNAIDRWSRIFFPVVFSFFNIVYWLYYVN
T6 sequence (P18507 whole entry): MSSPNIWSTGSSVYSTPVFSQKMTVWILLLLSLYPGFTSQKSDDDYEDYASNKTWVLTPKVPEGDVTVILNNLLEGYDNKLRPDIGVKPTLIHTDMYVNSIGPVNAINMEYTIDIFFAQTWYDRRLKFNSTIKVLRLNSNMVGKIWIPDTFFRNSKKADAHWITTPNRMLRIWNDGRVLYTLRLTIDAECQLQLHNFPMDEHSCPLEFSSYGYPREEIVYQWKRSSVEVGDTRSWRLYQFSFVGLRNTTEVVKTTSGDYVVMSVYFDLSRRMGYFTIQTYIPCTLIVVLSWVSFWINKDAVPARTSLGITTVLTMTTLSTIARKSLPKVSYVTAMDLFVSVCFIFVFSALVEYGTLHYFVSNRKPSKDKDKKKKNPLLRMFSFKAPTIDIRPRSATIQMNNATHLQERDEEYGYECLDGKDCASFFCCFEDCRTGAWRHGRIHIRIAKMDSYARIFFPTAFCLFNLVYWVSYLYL
T6 sequence (P47869 whole entry): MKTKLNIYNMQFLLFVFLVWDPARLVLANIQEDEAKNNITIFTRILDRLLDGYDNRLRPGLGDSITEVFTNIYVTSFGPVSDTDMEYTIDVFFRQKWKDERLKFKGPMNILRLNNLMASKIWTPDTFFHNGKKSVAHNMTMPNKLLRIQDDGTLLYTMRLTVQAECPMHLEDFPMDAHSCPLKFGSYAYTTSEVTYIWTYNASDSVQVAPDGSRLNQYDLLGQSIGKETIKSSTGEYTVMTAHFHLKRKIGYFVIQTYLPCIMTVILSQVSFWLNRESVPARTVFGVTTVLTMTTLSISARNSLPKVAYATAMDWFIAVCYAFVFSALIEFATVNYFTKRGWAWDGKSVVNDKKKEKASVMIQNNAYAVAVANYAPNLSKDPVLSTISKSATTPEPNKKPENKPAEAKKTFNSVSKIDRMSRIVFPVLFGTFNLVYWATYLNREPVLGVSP

[11] = target: T6, Gamma-aminobutyric acid receptor subunit alpha-1/alpha-2/beta-2/gamma-2; format: protein-complex assay
Note: assay procedure not described here.

Row | SMILES | AC50 [1] [µM] | AC50 [3] [µM] | AC50 [4] [µM] | AC50 [5] [µM] | AC50 [6] [µM] | AC50 [7] [µM] | AC50 [10] [µM] | further results
1 | Nc1c2ccccc2nc2ccccc12 [AMINACRINE] | > 30 | > 30 | 4.27 | > 30 | – | – | – | AC50 [2]: > 30 µM
2 | CC(=O)OCC(=O)[C@@]1(O)[C@H](C)C[C@H]2[C@@H]3CCC4=CC(=O)C=C[C@]4(C)[C@@]3(F)[C@@H](O)C[C@@]21C [DEXAMETHASONE ACETATE] | – | – | – | – | > 30 | > 30 | – | –
3 | Cn1c(=O)cc(N2CCC[C@@H](N)C2)n(Cc2ccccc2C#N)c1=O [ALOGLIPTIN] | – | – | – | – | > 30 | > 30 | – | AC50 [8]: > 10 µM; AC50 [9]: > 150 µM
4 | Oc1ccc2c(c1)[C@@]13CCCC[C@@]1(O)[C@@H](C2)N(CC1CCC1)CC3 [BUTORPHANOL] | – | – | – | – | – | – | > 30 | –
5 | CCN1CCCC1CNC(=O)c1cc(S(=O)(=O)CC)c(N)cc1OC (stereo not drawn) [AMISULPRIDE] | – | – | – | – | – | – | > 30 | –
6 | O=C(O)CCCCC1CCSS1 (stereo not drawn) [LIPOIC ACID, ALPHA] | > 30 | > 30 | > 30 | > 30 | – | – | – | AC50 [11]: > 30 µM
